Test results published in patent publication US20240398811A1, “PRC2 INHIBITORS FOR USE IN TREATING BLOOD DISORDERS” (ORIC Pharmaceuticals, Inc., priority 2021, published 2024).

Key:
[1] = molecular target: purified human, His-tagged PRC2 complex (Homo sapiens (Human), UniProt O75530); experiment: Hot Spot HMT assay, inhibition of PRC2 enzymatic activity; assay type: biochemical; conditions: 10 nM PRC2 complex, 1 μM 3H-SAM, core histone H3, 10-point dose-response
Summary of the method: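 Five-subunit PRC2 complex (EZH2, EED, SUZ12, AEBP2, RbAp48; 10 nM) preincubated 20 min at 30° C with compound (top 1.0 μM) and 0.05 mg/ml core histone H3 in Tris-HCl, 1% DMSO. Started with 1 μM [3H]SAM, 1 hr at 30° C; tritiated H3 measured by filter binding and scintillation.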

HBG1 mRNA = HBG1 mRNA levels by RT-qPCR in differentiated CD34+ cells; assay type: cell-based, human; conditions: 7-day treatment, normalized to RPL27, relative to vehicle
From the text: (§1) Cell Culture and differentiation protocol. Human bone marrow derived CD34+ cells from healthy donors were purchased from StemCell (#70002.2). The CD34+ cells were differentiated using the STEMdiff™ Erythroid kit (StemCell #100-0074) according to manufacturer's instructions. The CD34+ cells were differentiated for 14 days, and the differentiation medium consisted of StemSpan™ SFEM II media and 10% of STEMdiff™ Erythroid Supplement E2 (10×). The CD34+ cells were thawed and plated in a 12-well plate (Corning #3512) at a density of 40,000 cells/well in 1 mL of differentiation media. 100 μL of STEMdiff™ Erythroid Supplement E2 (10×) was added to each well on Day 2, 4, 9 and 11 during differentiation. On day 7, cells were passaged and replated at a density of 167,000 cells/well in a 12-well plate. Flow cytometry was performed every 7 days to assess the stages of differentiation using anti-human CD71 and anti-human glycophorin A (CD235a) antibody (StemCell #60106AZ; #60152FI).
(§2) Treatment of differentiated CD34+ cells with compound Example 32 or hydroxyurea (HU). After 14 days of differentiation, cells were plated in a 12-well plate at a density of 150,000 cells/well in 1 mL differentiation media in quadruplets. The next day, cells were treated with vehicle, 7 concentrations of compound Example 32 in concentrations ranging from 15.625 nM to 1 μM ([…] serial dilution) and 20 μM of HU. 100 μL of STEMdiff™ Erythroid Supplement E2 (10×) was added to each well on Day 2 and 4. Cells were treated with vehicle, compound Example 32, or HU for 7 days and were then harvested for RT-qPCR and flow cytometry.
(§3) RNA extraction and RT-qPCR analysis. The cell pellets harvested for mRNA analysis were first washed once with PBS and then resuspended in 600 μL of RLT lysis buffer (from the Qiagen kit) supplemented with 1% of beta-mercaptoethanol (Sigma-Aldrich #M6250). […] The extracted RNA was then quantified using a NanoDrop™ 8000 Spectrophotometer (ThermoFisher #ND8000-GL, software version 2.3.2). […]

[2] = test system: bone marrow derived CD34+ cells differentiated into erythroid progenitor cells; experiment: Percentage of F cells (fetal hemoglobin containing cells) by flow cytometry in differentiated CD34+ cells; assay type: cell-based, human; conditions: donors A and B, 14-day differentiated cells, 7-day treatment
From the text: as §1, §2
Flow Cytometry. The cell pellets harvested for flow cytometry analysis were collected in a V-shaped 96-well polypropylene plate (ThermoFisher #249944). The cells were washed with PBS and resuspended in 100 μL of PBS. The cells were first stained with eFluor 450 viability dye (diluted 1:250 in cold PBS; Invitrogen #65-0863-14) for 5 minutes on ice in the dark followed by incubation in Fc receptor blocking solution for 10 minutes (BioLegend #422302). […] Cells were washed twice and resuspended in FACS buffer and then analyzed by flow cytometry. Data was acquired using SONY SA3800 cytometer (software version 2.0.4.13263) and analyzed using FlowJo.
Bone marrow derived CD34+ cells from two healthy human donors (donor A and donor B) were differentiated into erythroid progenitor cells (erythroblasts) expressing Glycophorin A and CD71. Fourteen-day differentiated cells were then treated with vehicle (veh), different concentrations of compound Example 32, or 20 μM HU for 7 days and cells were analyzed for increase in fetal hemoglobin levels at both mRNA and protein levels. […]

HBG2 mRNA = HBG2 mRNA levels by RT-qPCR in differentiated CD34+ cells; assay type: cell-based, human; conditions: 7-day treatment, normalized to RPL27, relative to vehicle
From the text: as §1, §2, §3

Chain of purified human, His-tagged PRC2 complex (O75530 whole entry): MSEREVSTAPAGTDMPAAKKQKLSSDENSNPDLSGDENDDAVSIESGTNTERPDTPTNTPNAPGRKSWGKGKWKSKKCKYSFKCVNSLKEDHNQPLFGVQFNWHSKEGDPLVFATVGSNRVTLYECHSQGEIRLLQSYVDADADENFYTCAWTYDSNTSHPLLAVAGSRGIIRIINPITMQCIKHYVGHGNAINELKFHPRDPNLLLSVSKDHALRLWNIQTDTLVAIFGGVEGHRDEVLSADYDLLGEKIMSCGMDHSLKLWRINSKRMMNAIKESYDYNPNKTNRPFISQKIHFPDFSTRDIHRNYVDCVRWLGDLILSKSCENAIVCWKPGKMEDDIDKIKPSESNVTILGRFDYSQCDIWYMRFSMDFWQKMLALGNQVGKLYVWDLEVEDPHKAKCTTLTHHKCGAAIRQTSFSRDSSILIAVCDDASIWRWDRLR
Chain of purified human, His-tagged PRC2 complex (Q15910 whole entry partner): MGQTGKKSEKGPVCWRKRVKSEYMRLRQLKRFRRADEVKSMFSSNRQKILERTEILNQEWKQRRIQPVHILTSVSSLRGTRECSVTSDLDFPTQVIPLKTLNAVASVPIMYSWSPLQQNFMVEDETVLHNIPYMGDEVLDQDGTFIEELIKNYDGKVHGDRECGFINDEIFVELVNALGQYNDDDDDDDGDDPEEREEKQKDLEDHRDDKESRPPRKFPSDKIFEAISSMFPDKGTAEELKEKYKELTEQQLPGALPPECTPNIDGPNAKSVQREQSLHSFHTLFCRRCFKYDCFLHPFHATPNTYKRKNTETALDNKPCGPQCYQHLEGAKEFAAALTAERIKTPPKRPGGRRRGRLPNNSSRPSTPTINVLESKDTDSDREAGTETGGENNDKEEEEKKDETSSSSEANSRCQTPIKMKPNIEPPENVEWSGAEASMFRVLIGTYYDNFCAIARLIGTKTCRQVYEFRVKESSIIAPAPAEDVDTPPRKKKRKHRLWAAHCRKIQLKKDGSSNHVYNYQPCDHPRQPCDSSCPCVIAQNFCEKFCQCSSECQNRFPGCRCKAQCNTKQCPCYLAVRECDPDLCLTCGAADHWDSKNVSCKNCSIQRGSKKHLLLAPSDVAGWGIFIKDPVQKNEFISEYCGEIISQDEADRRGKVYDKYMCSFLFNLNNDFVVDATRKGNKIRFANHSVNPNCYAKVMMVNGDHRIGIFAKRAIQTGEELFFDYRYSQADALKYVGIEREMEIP
Chain of purified human, His-tagged PRC2 complex (Q15022 whole entry partner): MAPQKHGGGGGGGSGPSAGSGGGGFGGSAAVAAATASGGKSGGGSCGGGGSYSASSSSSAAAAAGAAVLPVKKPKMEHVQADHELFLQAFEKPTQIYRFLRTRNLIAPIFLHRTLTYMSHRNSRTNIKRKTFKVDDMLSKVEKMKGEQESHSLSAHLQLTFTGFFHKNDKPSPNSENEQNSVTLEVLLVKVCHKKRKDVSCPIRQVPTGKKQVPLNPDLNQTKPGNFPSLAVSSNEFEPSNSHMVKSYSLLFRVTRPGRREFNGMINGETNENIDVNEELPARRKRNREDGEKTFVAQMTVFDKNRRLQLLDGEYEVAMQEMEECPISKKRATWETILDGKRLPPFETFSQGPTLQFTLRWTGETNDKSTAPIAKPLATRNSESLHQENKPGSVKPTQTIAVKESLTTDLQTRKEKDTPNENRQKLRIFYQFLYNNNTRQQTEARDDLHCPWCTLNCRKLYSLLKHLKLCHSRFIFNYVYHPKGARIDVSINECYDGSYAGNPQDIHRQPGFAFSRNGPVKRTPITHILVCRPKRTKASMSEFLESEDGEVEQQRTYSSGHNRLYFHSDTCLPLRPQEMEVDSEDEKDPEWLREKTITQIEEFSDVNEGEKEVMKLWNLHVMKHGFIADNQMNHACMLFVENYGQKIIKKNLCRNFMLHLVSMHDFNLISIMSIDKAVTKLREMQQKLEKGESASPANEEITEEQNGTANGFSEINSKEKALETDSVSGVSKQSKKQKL
Chain of purified human, His-tagged PRC2 complex (Q6ZN18 whole entry partner): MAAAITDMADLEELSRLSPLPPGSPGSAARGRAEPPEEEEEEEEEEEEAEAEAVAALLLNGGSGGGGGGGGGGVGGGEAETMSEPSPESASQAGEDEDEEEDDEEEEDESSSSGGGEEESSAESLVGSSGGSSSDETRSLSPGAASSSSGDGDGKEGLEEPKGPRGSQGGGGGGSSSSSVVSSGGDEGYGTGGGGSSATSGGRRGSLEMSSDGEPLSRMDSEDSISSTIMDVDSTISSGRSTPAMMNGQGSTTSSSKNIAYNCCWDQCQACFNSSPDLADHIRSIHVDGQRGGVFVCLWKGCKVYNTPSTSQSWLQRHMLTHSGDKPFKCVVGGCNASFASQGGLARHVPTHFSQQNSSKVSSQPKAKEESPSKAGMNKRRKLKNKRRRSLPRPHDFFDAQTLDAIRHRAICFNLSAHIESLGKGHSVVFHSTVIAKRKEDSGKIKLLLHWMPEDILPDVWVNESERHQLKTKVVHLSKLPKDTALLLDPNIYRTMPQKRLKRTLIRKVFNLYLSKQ
Chain of purified human, His-tagged PRC2 complex (Q09028 whole entry partner): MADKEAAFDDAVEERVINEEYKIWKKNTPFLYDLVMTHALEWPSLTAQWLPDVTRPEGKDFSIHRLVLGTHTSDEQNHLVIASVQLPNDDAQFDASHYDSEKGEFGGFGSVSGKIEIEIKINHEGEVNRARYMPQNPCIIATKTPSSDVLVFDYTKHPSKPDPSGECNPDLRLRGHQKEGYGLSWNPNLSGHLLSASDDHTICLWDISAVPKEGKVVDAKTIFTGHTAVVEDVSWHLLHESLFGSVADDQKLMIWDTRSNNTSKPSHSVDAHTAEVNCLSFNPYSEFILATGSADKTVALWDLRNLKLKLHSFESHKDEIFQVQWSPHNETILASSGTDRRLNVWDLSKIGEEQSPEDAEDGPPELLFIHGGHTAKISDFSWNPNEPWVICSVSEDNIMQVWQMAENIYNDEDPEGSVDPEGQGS

In the case of `Cc1cc(CN(C)C)ccc1-c1cnc(NCc2c(F)ccc3c2CCO3)n2cc(C#N)nc12` [Example 32], the IC50 [1] is reported as 0.1 to 0.5 µM, the “fold increase in HBG1 mRNA levels” value (HBG1 mRNA; Donor A) is reported as 4 fold and the “fold increase in HBG1 mRNA levels” value (HBG1 mRNA; Donor B) is reported as 4 fold. For the same molecule, the “% F cells (live cells with fetal hemoglobin)” value [2] was 30-40%, the “fold increase in % F cells” value ([2]; 15.625 nM to 1 μM, vs vehicle) was 2.6-2.7 fold and the “fold increase in HBG2 mRNA levels” value (HBG2 mRNA; Donor A) was 9 fold. For the same molecule, the “fold increase in HBG2 mRNA levels” value (HBG2 mRNA; Donor B) was 4 fold.
